Measurements from US11406631B2, “Hydrazone derivatives for preventing or treating EBV-related cancers” (Universite de Bretagne Occidentale, priority 2018, dated 2022).

Columns and labels:
[1] = tested on: GAr-based inhibition of protein expression; assay: SDS-PAGE and western blot of 235GAr-OVA and OVA in transfected H1299 cells; type: cell-based
Source text: The aim of these experiments is to assess the effect of the inventive compounds on the GAr-based inhibition of protein expression. For this purpose, H1299 cells were transfected by plasmids allowing expression of either EBNA1 or, as a control EBNA1ΔGAr and then treated, or not by various concentrations of the indicated compounds. […] Compounds able to interfere with GAr-based inhibition of translation will increase the steady state level of EBNA1, whereas a having no effect on EBNA1ΔGAr.
The ratio of the quantity of OVA or GAr-OVA relatively to GAPDH (the loading control) are indicated below the gel.

G4-RNA EBNA1 = assay: HT-G4-FID assay: Thiazole Orange displacement from G4-RNA; type: binding, Epstein-Barr virus; conditions: for DC50: K+-100 buffer, pH 7.3, triplicate assays; for affinity for the G-quadruplex structure of EBNA1 (in words, FID data): conclusion from Table 1
Method: This assay is based on the displacement of a fluorescent indicator (Thiazole Orange, hereinafter TO) from a G4-RNA structure (RNA G-quadruplex of EBNA1) by a putative ligand such as the compounds of the invention (see FIG. 1). This displacement is quantified as % TO displacement. The percentage of TO displacement is calculated from the fluorescence intensity (F) in the presence of a putative ligand, using:
[formula] where F0 is fluorescence intensity of the probe (TO) bound to RNA without added ligand. The percentage of displacement is then plotted as a function of the concentration of added ligand. The RNA affinity of putative ligands is evaluated using the concentration of a ligand required to decrease the fluorescence of the probe by 50% (noted DC50), which is determined graphically from non-linear fitting of the displacement curve. […] 2. Materials and Reagents
Thiazole Orange (TO) and cacodylic acid were purchased from Aldrich and used without further purification. The oligoribonucleotide EBNA1 [5′-r(GGGGCAGGAGCAGGAGGA)-3′] (SEQ ID no 1) purified by reversed-phase HPLC was purchased from Eurogentec.
Stock solutions of the ligands (2 mM in DMSO (dimethylsulfoxyde)) were used for G4-FID assay, unless otherwise stated, and were stored at −20° C. Stock solutions of TO (2 mM in DMSO) were used for G4-FID assay. Fluorescent probe powders and solutions were stored and used, protected from light and used as aliquots to avoid freeze-thaw cycles. HT-G4-FID measurements were performed on a FLUOstar Omega microplate reader (BMG Labtech) with 96-well Non-Binding Surface black with black bottom polystyrene microplates (Corning ref 3650).
For HT-G4-FID assay, the oligonucleotide was dissolved in K^+−100-buffer (10 mM lithium cacodylate, pH 7.3, 100 mM KCl, 1 mM EDTA, 1% DMSO). Oligonucleotide concentrations were determined on the basis of their absorbance at 260 nm. Prior to use, the oligonucleotide was pre-treated by heating at 95° C. for 5 min followed by a slow cooling to 25° C.
Each G4-FID assay is performed in a 96-well microplates. […] The microplate is filled with (a) K^+−100 solution (qs for 200 μL) (b) 10 μL of a solution of pre-folded oligonucleotides (5 μM) and TO (10 μM-2 eq) and (c) an extemporaneously prepared 5 μM ligand solution in K^+−100 buffer (0 to 100 μL along the line of the microplate, i.e., from column […]: 0, 0.125, 0.25, 0.375, 0.5, 0.625, 0.75, 1.0, 1.25, 1.5, 2.0 and 2.5 μM) (see Largy et al., Anal Bioanal Chem 2011, 400, 34193427). After 5 min of orbital shaking at 500 rpm, fluorescence intensity is measured using the following experimental parameters: positioning delay: 0.5 s, 20 flashes per well, emission/excitation filters (nm): 485/520, gain adjusted at 80% of the fluorescence from the most fluorescent well (i.e., a well from column A).
Results are shown in Table 1 below (lower DC50 values indicate higher affinity of compounds to the G4-RNA structure of EBNA1).

Compound | OVA expression ([1]; control without GAr) | steady-state level of 235GAr-OVA ([1]; dose-dependent, relative to GAPDH) | DC50 (G4-RNA EBNA1) | affinity for the G-quadruplex structure of EBNA1 (in words, FID data) (G4-RNA EBNA1)
C[n+]1ccc(C=NNC(=O)c2cccc(C(=O)NN=Cc3cc[n+](C)c4ccccc34)n2)c2ccccc21.[I-].[I-] [Compound 2a, N′^2, N′^6-Bis[(1-methylquinolinium-4-yl)methylene]pyridine-2,6-dicarbohydrazide iodide] | no significant effect | significant increase | 0.26 ± 0.05 µM | particularly high affinity
C[n+]1ccc(C=NNC(=O)c2ccc3ccc4ccc(C(=O)NN=Cc5cc[n+](C)c6ccccc56)nc4c3n2)c2ccccc21.[I-].[I-] [Compound 11a, N′^2,N′^9-Bis[(1-methylquinolinium-4-yl)methylene]-1,10-phenanthroline-2,9-dicarbohydrazide iodide] |  |  | 0.3 ± 0.03 µM | particularly high affinity
